{"source": "paper PMC9101188", "about": "“Human α-Defensin-6 Neutralizes Clostridioides difficile Toxins TcdA and TcdB by Direct Binding” (International Journal of Molecular Sciences, 2022)", "molecules": {"B1": {"name": "α-def-5: structurally similar defensin; purchased from Pepta Nova (peptide, UniProt Q01523 20-94, looked up)", "Defensin alpha 5": "ESLQERADEATTQKQSGEDNQDLAISFAGNGLSALRTSGSQARATCYCRTGRCATRESLSGVCEISGRLYRLCCR", "modifications": "Defensin-5", "notes": "structurally similar defensin; purchased from Pepta Nova"}}, "key": {"TcdB autoprotease domain": {"tested_on": "TcdB autoprotease domain", "experiment": "In vitro autoprocessing of TcdB (InsP6-induced autoprotease activity)", "type": "biochemical, C. difficile VPI 10463", "details": "NEM 1 mM; TcdB 2 µg, InsP6 1 mM; 1 h, 37 °C, pH 7.4 (n = 2)", "protocol": "(§1) The flow rate was 25 µL/min. […] A representative gel is shown (n = 2). […] GAPDH served as the loading control. A representative Western blot is shown.\nThe effects of α-def-6 on TcdB autoprocessing by its intrinsic cysteine protease activity were analyzed. […] Inositol hexakisphosphate (1 mM, Santa Cruz Biotechnology, Dallas, TX, USA) was added to the samples to induce autoprocessing. N-Ethylmaleimide (1 mM, Sigma Aldrich by Merck KGaA, Darmstadt, Germany) served as positive control for the inhibition of TcdB-autoprocessing. The reactions were stopped by addition of a Laemmli buffer and heat denaturation (95 °C). For the analysis, the samples were electrophoresed on 8% SDS polyacrylamide gels, and proteins were visualized by Coomassie staining."}, "glucosyltransferase": {"tested_on": "glucosyltransferase", "details": "control in UDP-Glo assay at 10 mM; ref [29]; cited from earlier work", "protocol": "Based on the finding that TcdB directly binds to α-def-6 in vitro, a set of experiments was performed to investigate the consequences of this interaction for TcdB. Although α-def-6 and TcdB interact directly, the release of the glucosyltransferase domain by the autoprotease domain in the presence of inositol hexakisphosphate (InsP6) was not affected (Figure 1B)."}, "zebrafish embryos": {"tested_on": "zebrafish embryos", "details": "in vivo"}, "TcdA, TcdB and CDT": {"tested_on": "TcdA, TcdB and CDT", "details": "ref [25],[26]; cited from earlier work", "excerpt": "(§2) The benchmark for treating CDIs is still the use of some specific antibiotics such as vancomycin, metronidazole or fidaxomicin [20]. More and more attention is also being paid to the direct inactivation of the secreted toxins, for example by using anti-toxin-antibodies such as bezlotoxumab or actoxumab. Following the approach of directly inactivating the secreted toxins and based on previous findings of our group and of others, we investigated the effects of human endogenous antimicrobial peptides on the C. difficile toxins TcdA and TcdB. Here, of particular interest is the group ..."}, "bacterial protein toxins": {"tested_on": "bacterial protein toxins", "details": "ref [51]; cited from earlier work", "excerpt": "There is increasing evidence that α-def-6 represents an outlier among the α-defensins, which is also noticeable in the context of bacterial toxins. Anti-toxin activities have already been described for several α-defensins."}, "[1]": {"tested_on": "bacterial toxins including TcdB", "details": "cited from earlier work"}, "TcdB [2]": {"tested_on": "TcdB", "details": "SPR, β-def-1 6 µM (control); pH 7.0, 25 °C, 25 µL/min, 4 min injection", "experimental": "(A) 2400 RUs of biotinylated TcdB were immobilized via streptavidin-biotin binding onto a streptavidin sensor chip, and α-def-6 (concentrations as indicated) was applied to the chip for 4 min followed by a dissociation phase with a flow of running buffer. A solution of 6 µM of α-def-6 was injected twice to assess reproducibility, and β-def-1 (6 µM) served as a control. The flow rate was 25 µL/min.\nTcdB was biotinylated via EZ-Link^TM Sulfo-NHS-Biotin (Thermo Fisher Scientific, Waltham, MA, USA) according to the manufacturer’s protocol. Briefly, TcdB was incubated with Sulfo-NHS-Biotin for 30 min at room temperature (RT). To remove the excess non-reacted biotin, TcdB was rebuffered with a Zeba^TM Spin Desalting Column (Thermo Fisher Scientific, Waltham, MA, USA). The successful biotinylation was verified via Western blotting and detection with peroxidase-conjugated streptavidin (1:2500, F. Hoffmann-La Roche AG, Basel, Switzerland).\nThe binding of α-def-6 to biotinylated TcdB was analyzed via surface plasmon resonance spectroscopy (SPR) with a Reichert SPR7500DC SPR spectrometer (Reichert Technologies, Buffalo, NY, USA). All analytes were dialyzed in running buffer (10 mM HEPES, 150 mM NaCl, 50 µM EDTA, 0.005% (v/v) Tween®20, pH 7.0) beforehand. Experiments were performed with a flow rate of 25 µL/min at 25 °C. […]"}, "bacteria": {"tested_on": "bacteria", "details": "ref [46]; cited from earlier work", "excerpt": "as §2, with “TcdB. […] The administration” for “TcdB. Here,”, “of α-def-6 protected human cells from TcdB, but also from” for “of particular interest is”, “the closely related TcdA and the clinically more relevant combination of both TcdA and TcdB. Exemplarily, the protective effect could be confirmed for TcdB in vivo using the zebrafish embryo” for “the group”"}, "TcdB [3]": {"tested_on": "TcdB", "details": "ref [24]; cited from earlier work"}, "TcdB glucosyltransferase": {"tested_on": "TcdB glucosyltransferase", "experiment": "UDP-Glo glucosyltransferase assay", "type": "biochemical, C. difficile VPI 10463", "details": "TcdB 200 pM, recombinant Rac1 5 µM, UDP-glucose 100 µM, 1 h, 37 °C, pH 7.5, luminescence (n ≥ 3)", "protocol": "as §1\nUDP-Glo™ Glucosyltransferase assay with UDP-Glucose (Promega Corporation, Madison, WI, USA) was performed according to the manufacturer’s protocol. Briefly, TcdB (200 pM) was incubated in glucosylation buffer (50 mM HEPES, 100 mM KCl, 2 mM MgCl2, 1 mM MnCl2, 100 mg/L BSA, pH 7.5) with various concentrations of the respective inhibitors in a final volume of 40 µL. 5 µM recombinant Rac1 was included in the samples as a substrate. […] Castanospermine (10 mM, Santa Cruz Biotechnology, Dallas, TX, USA) served as control for inhibition of glucosyltransferase activity of TcdB. To stop the reaction, three times 10 µL of each sample were transferred to a white half area 96 well microplate (Greiner Bio-One International GmbH, Kremsmünster, Austria) combined with 10 µL of UDP Detection Reagent and mixed at 1000 rpm for 30 s on a plate shaker (Titramax 1000, Heidolph Instruments GmbH & Co. KG, Schwabach, Germany). Luminescence was recorded after 15–60 min via a Tecan infinite M1000 Pro plate reader (Tecan, Männdorf, Switzerland) with an integration time of 750 ms."}}, "note": "No end group written: not given here."}
{"molecule": "CCN1C(=O)C=CC1=O", "note": "[NEM, N-ethylmaleimide, reference compound]", "values": [{"measurement": "autocatalytic processing of TcdB (effect of control inhibitor)", "setting": "TcdB autoprotease domain", "value": "prevented the autocatalytic processing of TcdB"}]}
{"molecule": "O[C@H]1[C@H](O)[C@@H](O)CN2CC[C@H](O)[C@H]12", "note": "[castanospermine]", "values": [{"measurement": "inhibition of glucosyltransferase", "setting": "glucosyltransferase", "value": "established glucosyltransferase inhibitor"}]}
{"molecule": "Abamectin [reference compound]", "values": [{"measurement": "neurotoxicity", "setting": "zebrafish embryos", "value": "causes neurotoxicity"}]}
{"molecule": "α-defensin-1: human neutrophil peptide 1, α-defensin cited from earlier work [reference compound]", "values": [{"measurement": "inactivation of TcdA, TcdB and CDT", "setting": "TcdA, TcdB and CDT", "value": "inactivate TcdA and CDT, in addition to TcdB"}, {"measurement": "destabilization of toxin secondary and tertiary structures (local unfolding)", "setting": "bacterial protein toxins", "value": "leads to the destabilization of secondary and tertiary structures"}]}
{"molecule": "β-def-1: β-defensin used as control to exclude non-specific interactions; purchased from Pepta Nova (DHYNCVSSGGQCLYSACPIFTKIQGTCYRGKAKCCK; ends and bridges not checked; cysteine pairing not given here) [reference compound]", "values": [{"measurement": "interaction with bacterial toxins including TcdB", "setting": "[1]", "value": "do not interact with bacterial toxins including TcdB"}, {"measurement": "interaction with immobilized TcdB, compared to α-def-6", "setting": "TcdB [2]", "value": "much weaker in combination with a faster washout"}]}
{"molecule": "B1", "values": [{"measurement": "biocidal / antimicrobial activity", "setting": "bacteria", "value": "significant biocidal activity against invading pathogens"}, {"measurement": "inhibition of glucosyltransferase and glucosylhydrolase activity of TcdB", "setting": "TcdB [3]", "value": "directly inhibits the glucosyltransferase and glucosylhydrolase activity of TcdB"}, {"measurement": "inhibition of glucosyltransferase activity of TcdB", "setting": "TcdB glucosyltransferase", "value": "clear concentration-dependent reduction of glucosyltransferase activity"}, {"measurement": "inactivation of TcdA, TcdB and CDT", "setting": "TcdA, TcdB and CDT", "value": "inactivate TcdA and CDT, in addition to TcdB"}]}
